Earlier results on one compound are cited in patent EP0965341A2 (priority 1998, dated 1999).

This series relates to Atrial Fibrillation-Induced Electrical Remodeling. The note with it: pretreatment before AF; conclusion quoted from Circulation vol. 96, No.5, Sept. 1997.

Molecules are shown by their SMILES.

Take `CCN(CC)CCNC(=O)c1ccc(N)cc1` [procainamide]: the “acute, AF-induced changes in atrial electrophysiological properties” value is given as “not”.
